According to PubChem BioAssay (NCI):
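Growth conditions: 96-well plates. Treatment: test compound, 48 hours, 5 concentrations. Analysis: linear interpolation between bracketing concentrations; unreached endpoints set to highest concentration. GI50: concentration for 50% inhibition of growth. The concentration for full growth arrest is given as TGI.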

How the values were obtained:
Experiment in all cases: DTP human tumour cell line panel, 48 h
HL-60(TB) leukemia = system: HL-60(TB) leukemia
M14 melanoma = system: M14 melanoma
NCI/ADR-RES ovarian = system: NCI/ADR-RES ovarian
NCI-H460 lung = system: NCI-H460 lung
MALME-3M melanoma = system: MALME-3M melanoma
BT-549 breast = system: BT-549 breast
UACC-257 melanoma = system: UACC-257 melanoma
SK-OV-3 ovarian = system: SK-OV-3 ovarian
A549 NSCLC = system: A549 NSCLC
UO-31 renal = system: UO-31 renal
A498 renal = system: A498 renal
EKVX NSCLC = system: EKVX NSCLC
U251 CNS = system: U251 CNS
IGROV1 ovarian = system: IGROV1 ovarian
UACC-62 melanoma = system: UACC-62 melanoma
SK-MEL-2 melanoma = system: SK-MEL-2 melanoma
MCF7 breast = system: MCF7 breast
ACHN renal = system: ACHN renal
HT29 colon = system: HT29 colon
K-562 leukemia = system: K-562 leukemia
HCC-2998 colon = system: HCC-2998 colon
MDA-MB-231 breast = system: MDA-MB-231 breast
PC-3 prostate = system: PC-3 prostate
TK-10 renal = system: TK-10 renal
SK-MEL-28 melanoma = system: SK-MEL-28 melanoma
DU-145 prostate = system: DU-145 prostate
OVCAR-3 ovarian = system: OVCAR-3 ovarian
T-47D breast = system: T-47D breast
HCT-116 colon = system: HCT-116 colon
OVCAR-8 ovarian = system: OVCAR-8 ovarian
NCI-H522 lung = system: NCI-H522 lung
CAKI-1 renal = system: CAKI-1 renal
SK-MEL-5 melanoma = system: SK-MEL-5 melanoma
LOX IMVI melanoma = system: LOX IMVI melanoma
KM12 colon = system: KM12 colon
MDA-MB-435 = system: MDA-MB-435
SNB-19 CNS = system: SNB-19 CNS
SF-539 CNS = system: SF-539 CNS
NCI-H23 lung = system: NCI-H23 lung
OVCAR-5 ovarian = system: OVCAR-5 ovarian
HOP-92 NSCLC = system: HOP-92 NSCLC
SF-268 CNS = system: SF-268 CNS
NCI-H226 lung = system: NCI-H226 lung
RXF 393 renal = system: RXF 393 renal
MOLT-4 leukemia = system: MOLT-4 leukemia
HCT-15 colon = system: HCT-15 colon
HS 578T breast = system: HS 578T breast
SW-620 colon = system: SW-620 colon
OVCAR-4 ovarian = system: OVCAR-4 ovarian
SNB-75 CNS = system: SNB-75 CNS
SF-295 CNS = system: SF-295 CNS
RPMI-8226 leukemia = system: RPMI-8226 leukemia
786-0 renal = system: 786-0 renal
CCRF-CEM leukemia = system: CCRF-CEM leukemia
SN12C renal = system: SN12C renal
COLO 205 colon = system: COLO 205 colon

CCSc1nc(N)c2cnn(C)c2n1
GI50 (HL-60(TB) leukemia): 52.1 µM
TGI (HL-60(TB) leukemia): > 100 µM
GI50 (M14 melanoma): 52 µM
TGI (M14 melanoma): > 100 µM
GI50 (NCI/ADR-RES ovarian): > 100 µM
TGI (NCI/ADR-RES ovarian): > 100 µM
GI50 (NCI-H460 lung): 31.6 µM
TGI (NCI-H460 lung): > 100 µM
GI50 (MALME-3M melanoma): 33.6 µM
TGI (MALME-3M melanoma): > 100 µM
GI50 (BT-549 breast): 42.9 µM
TGI (BT-549 breast): > 100 µM
GI50 (UACC-257 melanoma): 67.1 µM
TGI (UACC-257 melanoma): > 100 µM
GI50 (SK-OV-3 ovarian): 54.8 µM
TGI (SK-OV-3 ovarian): > 100 µM
GI50 (A549 NSCLC): 52.6 µM
TGI (A549 NSCLC): > 100 µM
GI50 (UO-31 renal): 38.3 µM
TGI (UO-31 renal): > 100 µM
GI50 (A498 renal): 3.26 µM
TGI (A498 renal): 21.5 µM
GI50 (EKVX NSCLC): 56.7 µM
TGI (EKVX NSCLC): > 100 µM
GI50 (U251 CNS): 40.6 µM
TGI (U251 CNS): > 100 µM
GI50 (IGROV1 ovarian): 53.5 µM
TGI (IGROV1 ovarian): > 100 µM
GI50 (UACC-62 melanoma): 29.5 µM
TGI (UACC-62 melanoma): 69.6 µM
GI50 (SK-MEL-2 melanoma): > 100 µM
TGI (SK-MEL-2 melanoma): > 100 µM
GI50 (MCF7 breast): 28 µM
TGI (MCF7 breast): > 100 µM
GI50 (ACHN renal): 44.4 µM
TGI (ACHN renal): > 100 µM
GI50 (HT29 colon): 58.4 µM
TGI (HT29 colon): > 100 µM
GI50 (K-562 leukemia): 54.5 µM
TGI (K-562 leukemia): > 100 µM
GI50 (HCC-2998 colon): 25.4 µM
TGI (HCC-2998 colon): 92.1 µM
GI50 (MDA-MB-231 breast): 25.1 µM
TGI (MDA-MB-231 breast): 71 µM
GI50 (PC-3 prostate): 38.9 µM
TGI (PC-3 prostate): > 100 µM
GI50 (TK-10 renal): 34.1 µM
TGI (TK-10 renal): > 100 µM
GI50 (SK-MEL-28 melanoma): 62.3 µM
TGI (SK-MEL-28 melanoma): > 100 µM
GI50 (DU-145 prostate): 40 µM
TGI (DU-145 prostate): > 100 µM
GI50 (OVCAR-3 ovarian): 30.6 µM
TGI (OVCAR-3 ovarian): > 100 µM
GI50 (T-47D breast): 0.0485 µM
TGI (T-47D breast): > 100 µM
GI50 (HCT-116 colon): 28.9 µM
TGI (HCT-116 colon): > 100 µM
GI50 (OVCAR-8 ovarian): 49.4 µM
TGI (OVCAR-8 ovarian): > 100 µM
GI50 (NCI-H522 lung): 62.9 µM
TGI (NCI-H522 lung): > 100 µM
GI50 (CAKI-1 renal): 25.9 µM
TGI (CAKI-1 renal): > 100 µM
GI50 (SK-MEL-5 melanoma): 16.1 µM
TGI (SK-MEL-5 melanoma): 38.9 µM
GI50 (LOX IMVI melanoma): 33 µM
TGI (LOX IMVI melanoma): > 100 µM
GI50 (KM12 colon): 34.6 µM
TGI (KM12 colon): > 100 µM
GI50 (MDA-MB-435): 38.7 µM
TGI (MDA-MB-435): > 100 µM
GI50 (SNB-19 CNS): 58.4 µM
TGI (SNB-19 CNS): > 100 µM
GI50 (SF-539 CNS): 36.1 µM
TGI (SF-539 CNS): > 100 µM
GI50 (NCI-H23 lung): 41.5 µM
TGI (NCI-H23 lung): > 100 µM
GI50 (OVCAR-5 ovarian): 49.9 µM
TGI (OVCAR-5 ovarian): > 100 µM
GI50 (HOP-92 NSCLC): 77.4 µM
TGI (HOP-92 NSCLC): > 100 µM
GI50 (SF-268 CNS): 33 µM
TGI (SF-268 CNS): 85.1 µM
GI50 (NCI-H226 lung): 27.4 µM
TGI (NCI-H226 lung): 69.2 µM
GI50 (RXF 393 renal): 36.2 µM
TGI (RXF 393 renal): > 100 µM
GI50 (MOLT-4 leukemia): 59.9 µM
TGI (MOLT-4 leukemia): > 100 µM
GI50 (HCT-15 colon): 32 µM
TGI (HCT-15 colon): > 100 µM
GI50 (HS 578T breast): 30.7 µM
TGI (HS 578T breast): 74 µM
GI50 (SW-620 colon): 34.2 µM
TGI (SW-620 colon): > 100 µM
GI50 (OVCAR-4 ovarian): 81.2 µM
TGI (OVCAR-4 ovarian): > 100 µM
GI50 (SNB-75 CNS): 68.9 µM
TGI (SNB-75 CNS): > 100 µM
GI50 (SF-295 CNS): 51.7 µM
TGI (SF-295 CNS): > 100 µM
GI50 (RPMI-8226 leukemia): 37.5 µM
TGI (RPMI-8226 leukemia): > 100 µM
GI50 (786-0 renal): 80 µM
TGI (786-0 renal): > 100 µM
GI50 (CCRF-CEM leukemia): 42.3 µM
TGI (CCRF-CEM leukemia): > 100 µM
GI50 (SN12C renal): 48.9 µM
TGI (SN12C renal): > 100 µM
GI50 (COLO 205 colon): 29.9 µM
TGI (COLO 205 colon): > 100 µM
